Measurements from PMC8020795 (Proceedings of the National Academy of Sciences of the …, 2021).
“And” between values parts separate entries of the source, which are not always exact repeats. Equal entries are not always repeated. “Also recorded” adds a separate entry of the source.

Key:
HCA-1 cells [1] = assay: EMT marker expression under hypoxia (qRT-PCR); format: cell-based, murine; conditions: hypoxic conditions (1% oxygen)
Procedure: Signaling, Danvers, MA) or β-actin (Sigma-Aldrich, St. Louis, MO) before incubation with HRP-conjugated secondary antibodies (Antibodies Inc., Davis, CA) for 1 h. Autoradiography was conducted after ECL reagent (Thermo Scientific, Rockford, IL) was added to the […]
Reverse transcription quantitative real time PCR
Total RNA was extracted from HCA-1 cells using the RNeasy Mini Kit (Qiagen, CA, USA). cDNAs were synthesized using the High-Capicity cDNA Reverse Transcription Kit (Applied Biosystems, CA, USA). Primers specific for Slug, Fn1, Cdh2, Vim, Foxc2, Zeb1, Zeb2, Twist1, Cdh1, Mta3, Cldn3, Cldn5, β-actin and GAPDH were used, and relative gene expression was determined using Real-Time SYBR Green PCR Master Mix (Applied Biosystems, CA, USA) on a QPCR System. The comparative threshold cycle method was used to calculate fold change in gene expression, which was normalized to β-actin as a […]

HCA-1 cells [2] = assay: CXCL12-induced HCA-1 chemotaxis (invasion assay); format: cell-based, murine; conditions: concentration up to 1 µM
Procedure: [3-(2-Aminomethyl-oxazol-4-yl)-propyl]-[3-(tert-butoxycarbonyl-cyclohexyl-amino)- propyl]-carbamic acid tert-butyl ester (Linker 1). A mixture of L1-6 (10.35 g, 16.5 mmol) and 10% Pd/C (4.66 g) in iso-propanol (310 mL) was stirred under H2(g) at 50 °C for 15 h.
The resulting mixture was filtered, and the filtrate was concentrated to afford Linker 1 (7.23 g, […]
Wound healing and invasion assays
Cell migration ability was measured by wound healing assay. HCA-1 cells (5 × 10^5 cells per well) were seeded onto 12-well plates and incubated overnight. When the cell confluence exceeded 90%, scratch wounds were made by scraping a straight line in the middle of the cell layer using the tip of a 1000 µL pipette. After washing the cells with PBS, the cells were incubated in serum-free medium under different treatment conditions (control, 100 ng/mL CXCL12, and 10 µM BPRCX807 with 100 ng/mL CXCL12). Then, 3-4 fields (40×) of each group were randomly chosen and observed by a microscope (IX83, Olympus, Japan) at time points of 0 h, 24h, 48 h and 72 h. For the invasion assay, HCA-1 cells were suspended in RPMI 1640 containing 0.5% FBS and then preincubated with the indicated concentrations of compounds for 10 min at 37 °C. […] After 17.5 h of incubation at 37 °C, the cells in both chambers of the inserts were measured with a CellTiter-Glo Luminescent Cell Viability Assay (Promega, Wisconsin). […]

HCA-1 cells [3] = assay: Western blot of phospho-ERK and phospho-AKT after CXCL12 stimulation; format: cell-based, murine; conditions: 20 µM, CXCL12 stimulation
Procedure: Western blotting was conducted by following standard procedures. HCA-1 or JHH-7 cells (10^5 cells per well) were seeded in 12-well plates (Costar, IL), incubated for 12 h and […]
containing (100 ng/mL) serum-free medium. After 24 h, the cells were lysed in RIPA buffer on ice for 30 min, and samples were collected and loaded with 4× Laemmli Sample buffer (Bio-Rad, Hercules, CA). The samples were separated on a 10% SDS-PAGE gels and transferred to PVDF membranes. After blocking with skim milk for 1 h, the membranes were incubated at 4°C overnight with primary antibodies against p -AKT, AKT, p-ERK, ERK (Cell Signaling, Danvers, MA) or β-actin (Sigma-Aldrich, St. Louis, MO) before incubation with HRP-conjugated secondary antibodies (Antibodies Inc., Davis, CA) for 1 h. […]
Total RNA was extracted from HCA-1 cells using the RNeasy Mini Kit (Qiagen, CA, USA). cDNAs were synthesized using the High-Capicity cDNA Reverse Transcription Kit […]
Biosystems, CA, USA) on a QPCR System. The comparative threshold cycle method was used to calculate fold change in gene expression, which was normalized to β-actin as a […]

[4] = tested on: human liver cytochrome P450 isozymes (CYP 1A2, 2C9, 2C19, 2D6, 2E1, 3A4); conditions: 100 μM; 1A2, 2C9, 2C19, 2D6, 2E1, and 3A4 isozymes
Source text: The effects of BPRCX807 on the activity of six specific human liver cytochrome P450 isozymes (CYP 1A2, 2C9, 2C19, 2D6, 2E1, 3A4) expressed in baculovirus-infected insect cell supersomes were studied. The reactions used to measure the activity of these enzymes

[5] = Metabolic stability in liver microsomes; format: in vitro ADME; conditions: mouse, rat, dog, and human
Source text: Figure S4. The metabolic stabilities of BPRCX807 in liver microsomes. BPRCX807 is […]

CXCR4 = CXCR4 (Homo sapiens, UniProt P61073); assay: CXCL12-induced chemotaxis inhibition assay in CCRF-CEM cells; format: cell-based; parameters: host or cells: CCRF-CEM; conditions: mean ± SD
Chain of CXCR4 (P61073 whole entry): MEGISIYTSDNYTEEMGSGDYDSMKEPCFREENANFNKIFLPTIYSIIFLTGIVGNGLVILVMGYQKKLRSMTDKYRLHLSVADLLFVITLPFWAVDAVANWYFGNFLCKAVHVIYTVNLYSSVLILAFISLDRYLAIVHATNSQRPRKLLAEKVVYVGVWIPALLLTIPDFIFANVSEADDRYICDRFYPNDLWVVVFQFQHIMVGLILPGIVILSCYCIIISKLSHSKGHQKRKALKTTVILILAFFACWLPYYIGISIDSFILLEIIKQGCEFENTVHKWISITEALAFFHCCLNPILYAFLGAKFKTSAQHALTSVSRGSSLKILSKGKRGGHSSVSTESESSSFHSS
Procedure: Figure S1. Binding affinity and chemotaxis inhibition assay of BPRCX807. (a) Binding affinity (IC50) of BPRCX807 was determined by 50% inhibition of radioligand [125I]CXCL12 binding to hCXCR4-transfected HEK293T membrane; (b) CXCL12-induced chemotaxis inhibition assay was performed to measure the inhibitory activity of BPRCX807 using CCRF-CEM cell line. Values represent the mean ± SD of at least three independent […]
Figure S2. CXCR4+CD34+ stem cell mobilization. C57BL/6 male mice were […]
h after dosing, the peripheral blood was harvested for analyzing the number of CXCR4+CD34+ stem cells. The data are the mean values ± SEM (n = 3/group). Statistical

Compound: Cc1cc(NC2CCN(C(=O)CCNCC(=O)O)CC2)nc(NCc2nc(CCCNCCCNC3CCCCC3)co2)n1 [BPRCX807]
- Expression of epithelial markers (E-cadherin, MTA-3, CLDN3, CLDN5) (HCA-1 cells [1]): alleviated a hypoxia-induced decrease in the epithelial markers
- Expression of mesenchymal markers (Slug, Fibronectin, N-cadherin, Vimentin, FOXC2, Zeb1, Zeb2) (HCA-1 cells [1]; dose-dependent): restrained the increases in the expression of mesenchymal markers
- CXCL12-induced cell migration (HCA-1 cells [2]): significant decrease
- CXCR4/CXCL12-triggered ERK and Akt activation (HCA-1 cells [3]): suppress CXCR4/CXCL12-triggered ERK and Akt activation more significantly than its counterparts
- CYP450 inhibition [4]: no inhibitory effects; also recorded: No inhibition
- Metabolic stability in liver microsomes [5]: metabolically stable
- EC50 (CXCR4): 48 nM and 48.1 nM
